Results taken from patent publication US10183927B2, “Crystalline forms of C21H22Cl2N4O2” (BIOMED VALLEY DISCOVERIES, INC., priority 2015, dated 2019).
Structures can show the parent of a compound that is named as a salt.

Experiment: Interconversion of solid forms as a function of relative humidity
Assay type: physicochemical
Experimental: A vessel containing 4-(5-Chloro-2-isopropylaminopyridin-4-yl)-1H-pyrrole-2-carboxylic acid [1-(3-chlorophenyl)-2-hydroxyethyl]amide Form A was purged with dry nitrogen and relative humidity was monitored. After about 73 minutes the relative humidity had decreased from 36.9% to 1.0%.

| solid form upon sorption of water (sorption of water) | SMILES | solid form after purging with dry nitrogen (relative humidity decreased from 36.9% to 1.0% after about 73 minutes) |
| --- | --- | --- |
| – | CC(C)Nc1cc(-c2c[nH]c(C(=O)N[C@H](CO)c3cccc(Cl)c3)c2)c(Cl)cn1 [Form A, 4-(5-Chloro-2-isopropylaminopyridin-4-yl)-1H-pyrrole-2-carboxylic acid [1-(3-chlorophenyl)-2-hydroxyethyl]amide HCl hydrate] | determined to be a new form, designated Form D |
| observed to be Form A | CC(C)Nc1cc(-c2c[nH]c(C(=O)N[C@H](CO)c3cccc(Cl)c3)c2)c(Cl)cn1 [Form D, 4-(5-Chloro-2-isopropylaminopyridin-4-yl)-1H-pyrrole-2-carboxylic acid [1-(3-chlorophenyl)-2-hydroxyethyl]amide HCl] | – |
